Tested on: db/db mice
Assay: Activity of decreasing blood sugar using db/db mice
Format: in vivo
Settings: female db/db mice, 1 mg/kg, compound mixed with powdered chow, 14 days; difference between db/db and +/+ mouse defined as 100%
Text: <Activity of Decreasing Blood Sugar Using db/db Mice>
• 1-(2-Chloro-4-(n-pentyloxy)benzyl)-2-methyl-6-((4-methylbenzene)sulfonylcarbamoyl)benzimidazole—Compound(15) • 6-((N-1-butylaminosulfonyl)carbamoyl)-1-(2-chloro-4-phenylbenzyl)-2-methylbenzimidazole—Compound(76) Animal Used
Five-week-old female mice [C57BL/KsJ-dbm db+/db+, C57BL/KsJ-dbm +m/+m (Jackson Laboratory)] were purchased, and were kept for 2 to 3 weeks. Then, these mice were used in the test.
A test compound was mixed with a powdered chow (CE-2, made by Nippon Clea) using a mortar. The mixing ratio was 0.01%. The mixed chow was changed twice a week for each group. The feed amount and the remaining amount were recorded, and the intake was calculated from the difference therebetween.
The female db/db mice were grouped according to the body weight, the plasma glucose, and the plasma triglyceride concentrations. Then, the mixture containing the test compound was administered to the mice for 14 days (from 8 to 10 weeks old). In the morning on day 7 and day 14, blood was collected from the orbital venous plexus using heparinized glass capillary tubes (Chase Heparinized Capillary Tubes), and a plasma fraction was obtained through centrifugal separation. Plasma glucose, triglyceride, and insulin concentrations were measured on day 0 and day 14. Plasma glucose and triglyceride concentrations were measured on day 7. The body weight was measured on day 0, day 7, and day 14. After the final collection of the blood, the mice were killed using CO2 gas.
The plasma glucose was measured by a glucose oxidase method (Glucose CII-Test Wako made by Wako Pure Chemical Industries, Ltd.) using from 10 to 15 μl of plasma. The plasma triglyceride concentration was measured by a GPO-p-chlorophenol method (Triglyceride G-Test Wako made by Wako Pure Chemical Industries, Ltd.) or a GPO-DAOS method (Triglyceride E-Test Wako) using from 10 to 15 μl of plasma. The above-mentioned measurements were conducted immediately after the blood collection. The plasma insulin concentration was measured by radioimmunoassay method (Phadesef Insulin RIA Kit made by Cabi Pharmacia) using 20 μl of plasma (which can be stored at −20° C.).
The difference in the plasma glucose and the plasma triglyceride concentrations between the db/db mouse and the +/+ mouse was defined as 100%, and the rate (%) of decrease in the plasma glucose and the plasma triglyceride concentrations of the group to which the test compound was administered was calculated. […]

| SMILES | rate of decrease in the plasma glucose [%] | rate of decrease in the plasma triglyceride [%] |
| --- | --- | --- |
| CCCCCOc1ccc(Cn2c(C)nc3ccc(C(=O)NS(=O)(=O)c4ccc(C)cc4)cc32)c(Cl)c1 [Compound (15), 1-(2-chloro-4-(n-pentyloxy)benzyl)-2-methyl-6-((4-methylbenzene)sulfonylcarbamoyl)benzimidazole] | 79 | 69 |
| CCCCNS(=O)(=O)NC(=O)c1ccc2nc(C)n(Cc3ccc(-c4ccccc4)cc3Cl)c2c1 [Compound (76), 6-((N-1-butylaminosulfonyl)carbamoyl)-1-(2-chloro-4-phenylbenzyl)-2-methylbenzimidazole] | 71 | 98 |

Tested on: not given
Assay: not given
Settings: not given

| melting point [°C] | SMILES |
| --- | --- |
| 175.3 to 176.2 | CCCNS(=O)(=O)NC(=O)c1ccc2nc(C)n(Cc3ccc(OCC)cc3Cl)c2c1 [Compound (86), 1-(2-chloro-4-(ethyloxy)benzyl)-2-methyl-6-((N-1-propylaminosulfonyl)carbamoyl)benzimidazole] |
| 205 to 207 | CCCCCS(=O)(=O)NC(=O)c1ccc2nc(C)n(Cc3ccc(N4CCOCC4)cc3Cl)c2c1 [Compound (71), 1-(2-chloro-4-morpholinobenzyl)-2-methyl-6-(1-pentanesulfonylcarbamoyl)benzimidazole] |
| 176.4 to 179.1 | CCCCCOc1ccc(Cn2c(C)nc3ccc(C(=O)NS(=O)(=O)NCCC)cc32)c(Cl)c1 [Compound (89), 1-(2-chloro-4-(pentyloxy)benzyl)-2-methyl-6-((N-1-propylaminosulfonyl)carbamoyl)benzimidazole] |
| 202 to 203 | CCCNS(=O)(=O)NC(=O)c1ccc2nc(C)n(Cc3ccc(C(F)(F)F)cc3Cl)c2c1 [Compound (74), 1-(2-chloro-4-(trifluoromethyl)benzyl)-2-methyl-6-((N-1-propylaminosulfonyl)carbamoyl)benzimidazole] |
| 190.5 to 192.2 | CCNS(=O)(=O)NC(=O)c1ccc2nc(C)n(Cc3ccc(-c4ccco4)cc3Cl)c2c1 [Compound (91), 1-(2-chloro-4-(2-furyl)benzyl)-6-((N-ethylaminosulfonyl)carbamoyl)-2-methylbenzimidazole] |
| 190 to 191 | CCCCC#Cc1ccc(Cn2c(C)nc3ccc(C(=O)NS(=O)(=O)CCCCC)cc32)c(Cl)c1 [Compound (44), 1-(2-chloro-4-(1-hexyn-1-yl)benzyl)-2-methyl-6-(1-pentanesulfonylcarbamoyl)benzimidazole] |
| 177.8 to 180.2 | CCCNS(=O)(=O)NC(=O)c1ccc2nc(C)n(Cc3ccc(-c4ccco4)cc3Cl)c2c1 [Compound (92), 1-(2-chloro-4-(2-furyl)benzyl)-2-methyl-6-((N-1-propylaminosulfonyl)carbamoyl)benzimidazole] |
